Read-outs that look alike come from different tables or passages of the source.
Legend:
mouse UAE = mouse UAE (Mus musculus (Mouse), UniProt Q02053); assay: Ubiquitin Activating Enzyme (UAE) HTRF assay, mouse UAE
Protocol: (§1) After incubation for 120 minutes, quantification of the FRET is performed on the Pherostar (BMG).
(§2) For compounds whose values are marked with an asterisk (*), mouse UAE was used. For all other compounds, human UAE was used.

recombinant human UAE = recombinant human UAE (Homo sapiens (Human), UniProt P22314); assay: Ubiquitin Activating Enzyme (UAE) HTRF assay, human UAE
recombinant human UAE, sequence (P22314 whole entry): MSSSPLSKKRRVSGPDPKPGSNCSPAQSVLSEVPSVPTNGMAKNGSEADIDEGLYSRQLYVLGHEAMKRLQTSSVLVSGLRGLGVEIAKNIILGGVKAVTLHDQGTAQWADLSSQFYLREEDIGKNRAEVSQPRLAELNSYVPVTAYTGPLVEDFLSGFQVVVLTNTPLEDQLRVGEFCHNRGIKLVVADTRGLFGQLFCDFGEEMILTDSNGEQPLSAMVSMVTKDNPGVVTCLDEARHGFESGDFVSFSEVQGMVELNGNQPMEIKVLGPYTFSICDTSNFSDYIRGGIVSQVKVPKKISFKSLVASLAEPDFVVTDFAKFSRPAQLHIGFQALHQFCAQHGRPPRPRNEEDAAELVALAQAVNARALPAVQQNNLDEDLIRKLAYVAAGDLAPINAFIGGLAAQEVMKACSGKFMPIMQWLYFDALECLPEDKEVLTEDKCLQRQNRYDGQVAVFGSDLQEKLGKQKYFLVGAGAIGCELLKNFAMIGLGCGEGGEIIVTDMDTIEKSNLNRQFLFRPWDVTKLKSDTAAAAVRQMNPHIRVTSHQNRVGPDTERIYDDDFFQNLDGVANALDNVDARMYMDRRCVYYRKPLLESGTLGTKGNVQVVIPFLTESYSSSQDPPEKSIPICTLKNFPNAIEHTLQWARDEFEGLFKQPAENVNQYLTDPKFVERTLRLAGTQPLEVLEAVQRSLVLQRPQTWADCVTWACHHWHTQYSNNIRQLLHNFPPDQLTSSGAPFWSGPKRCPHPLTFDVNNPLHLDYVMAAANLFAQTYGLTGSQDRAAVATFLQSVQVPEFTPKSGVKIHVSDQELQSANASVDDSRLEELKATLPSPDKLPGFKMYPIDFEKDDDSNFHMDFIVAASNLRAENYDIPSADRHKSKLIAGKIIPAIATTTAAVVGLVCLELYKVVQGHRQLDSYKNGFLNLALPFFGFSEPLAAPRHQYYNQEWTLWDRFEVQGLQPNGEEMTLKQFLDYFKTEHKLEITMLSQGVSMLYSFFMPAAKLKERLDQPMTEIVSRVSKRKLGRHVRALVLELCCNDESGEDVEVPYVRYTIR
Protocol: as §1, §2

mouse UAE, sequence (Q02053 whole entry): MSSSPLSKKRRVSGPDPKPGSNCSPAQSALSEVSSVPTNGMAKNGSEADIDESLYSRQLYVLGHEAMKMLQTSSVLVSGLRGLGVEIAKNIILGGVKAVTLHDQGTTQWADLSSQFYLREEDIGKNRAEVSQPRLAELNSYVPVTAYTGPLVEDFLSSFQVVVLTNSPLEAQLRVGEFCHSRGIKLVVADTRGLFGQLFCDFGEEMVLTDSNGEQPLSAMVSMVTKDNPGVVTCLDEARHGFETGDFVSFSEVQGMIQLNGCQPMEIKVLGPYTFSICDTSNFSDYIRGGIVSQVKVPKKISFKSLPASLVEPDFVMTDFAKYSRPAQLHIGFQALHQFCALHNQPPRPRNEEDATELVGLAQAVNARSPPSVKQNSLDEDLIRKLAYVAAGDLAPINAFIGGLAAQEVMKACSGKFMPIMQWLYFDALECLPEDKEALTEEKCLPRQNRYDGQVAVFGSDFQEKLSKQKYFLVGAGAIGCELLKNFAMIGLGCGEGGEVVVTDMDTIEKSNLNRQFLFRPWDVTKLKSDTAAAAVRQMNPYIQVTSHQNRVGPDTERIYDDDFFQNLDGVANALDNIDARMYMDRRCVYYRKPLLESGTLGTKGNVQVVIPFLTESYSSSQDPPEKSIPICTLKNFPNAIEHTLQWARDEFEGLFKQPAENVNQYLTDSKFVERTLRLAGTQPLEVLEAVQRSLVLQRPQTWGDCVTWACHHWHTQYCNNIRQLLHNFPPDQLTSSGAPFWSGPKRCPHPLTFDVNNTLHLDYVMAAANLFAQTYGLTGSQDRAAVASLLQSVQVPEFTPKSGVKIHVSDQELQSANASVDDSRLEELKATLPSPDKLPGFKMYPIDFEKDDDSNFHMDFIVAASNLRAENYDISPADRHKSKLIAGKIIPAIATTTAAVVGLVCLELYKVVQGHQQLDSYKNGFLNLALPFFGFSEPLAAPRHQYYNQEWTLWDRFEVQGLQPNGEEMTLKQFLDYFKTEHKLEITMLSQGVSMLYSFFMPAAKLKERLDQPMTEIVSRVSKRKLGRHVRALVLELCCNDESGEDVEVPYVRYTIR

Compound	IC50 (recombinant human UAE)	IC50 (recombinant human UAE; human UAE)	other results
NS(=O)(=O)OC[C@H]1C[C@@H](Nc2ccnc3cc(-c4ccccc4)nn23)[C@H](O)[C@@H]1O (racemic) [Compound I-001, (rac)-((1R,2R,3S,4R)-2,3-dihydroxy-4-(2-phenylpyrazolo[1,5-a]pyrimidin-7-ylamino)cyclopentyl)methyl rel-sulfamate]			IC50 (mouse UAE): 10 to 100 nM
NS(=O)(=O)OC[C@H]1C[C@@H](Nc2ccnc3cc(-c4cccc5ccccc45)nn23)[C@H](O)[C@@H]1O (racemic) [Compound I-002, (rac)-((1R,2R,3S,4R)-2,3-dihydroxy-4-{[2-(1-naphthyl)pyrazolo[1,5-a]-pyrimidin-7-yl]amino}cyclopentyl)methyl rel-sulfamate]			IC50 (mouse UAE): < 10 nM
NS(=O)(=O)OC[C@H]1C[C@@H](Nc2ccnc3cc(-c4cccc(Cl)c4)nn23)[C@H](O)[C@@H]1O (racemic) [Compound I-005, (rac)-((1R,2R,3S,4R)-4-((2-(3-Chlorophenyl)pyrazolo[1,5-a]pyrimidin-7-yl)amino)-2,3-dihydroxycyclopentyl)methyl rel-sulfamate]			IC50 (mouse UAE): < 10 nM
NS(=O)(=O)OC[C@H]1C[C@@H](Nc2cc(Cl)nc3cc(-c4ccccn4)nn23)[C@H](O)[C@@H]1O (racemic) [Compound I-011, (rac)-((1R,2R,3S,4R)-4-(5-chloro-2-(pyridin-2-yl)pyrazolo[1,5-a]pyrimidin-7-ylamino)-2,3-dihydroxycyclopentyl)methyl rel-sulfamate]			IC50 (mouse UAE): 100 to 1000 nM
NS(=O)(=O)OC[C@H]1C[C@@H](Nc2ccnc3cc(-c4ccccn4)nn23)[C@H](O)[C@@H]1O (racemic) [Compound I-012, (rac)-[(1R,2R,3S,4R)-2,3-dihydroxy-4-{[2-(pyridin-2-yl)pyrazolo[1,5-a]pyrimidin-7-yl]amino}cyclopentyl]methyl rel-sulfamate]			IC50 (mouse UAE): 10 to 100 nM
NS(=O)(=O)OC[C@H]1C[C@@H](Nc2ccnc3cc(-c4csc5cc(Cl)ccc45)nn23)[C@H](O)[C@@H]1O (racemic) [Compound I-091, (rac)-((1R,2R,3S,4R)-4-(2-(6-chlorobenzo[b]thiophen-3-yl)pyrazolo[1,5-a]pyrimidin-7-ylamino)-2,3-dihydroxycyclopentyl)methyl rel-sulfamate]			IC50 (mouse UAE): < 10 nM
Cc1cc(N[C@@H]2C[C@H](COS(N)(=O)=O)[C@@H](O)[C@H]2O)n2nc(-c3ccccc3)cc2n1 (relative stereo) [Compound I-004, (rac)-{(1R,2R,3S,4R)-2,3-dihydroxy-4-[(5-methyl-2-phenylpyrazolo[1,5-a]pyrimidin-7-yl)amino]cyclopentyl}methyl rel-sulfamate]	100 to 1000 nM		
NS(=O)(=O)OC[C@H]1C[C@@H](Nc2cc(Cl)nc3cc(-c4ccccc4)nn23)[C@H](O)[C@@H]1O (relative stereo) [Compound I-006, (rac)-{(1R,2R,3S,4R)-4-[(5-chloro-2-phenylpyrazolo[1,5-a]pyrimidin-7-yl)amino]-2,3-dihydroxycyclopentyl}methyl rel-sulfamate]	100 to 1000 nM		
Cc1cnc2cc(-c3ccccc3)nn2c1N[C@@H]1C[C@H](COS(N)(=O)=O)[C@@H](O)[C@H]1O (relative stereo) [Compound I-089, (rac)-{(1R,2R,3S,4R)-2,3-dihydroxy-4-[(6-methyl-2-phenylpyrazolo[1,5-a]pyrimidin-7-yl)amino]cyclopentyl}methyl rel-sulfamate]	100 to 1000 nM		
COC(=O)c1ccc2c(-c3cc4nccc(N[C@@H]5C[C@H](COS(N)(=O)=O)[C@@H](O)[C@H]5O)n4n3)cccc2c1 (relative stereo) [Compound I-096, (rac)-methyl rel-5-[7-({(1R,2S,3R,4R)-2,3-dihydroxy-4-[(sulfamoyloxy)methyl]cyclopentyl}amino)pyrazolo[1,5-a]pyrimidin-2-yl]-2-naphthoate]	< 10 nM		
NS(=O)(=O)OC[C@H]1C[C@@H](Nc2ccnc3cc(-c4cccc5ccccc45)nn23)[C@H](O)[C@@H]1O [Compound I-098, (s.e.)-((1R,2R,3S,4R)-2,3-dihydroxy-4-{[2-(1-naphthyl)pyrazolo[1,5-a]pyrimidin-7-yl]amino}cyclopentyl)methyl sulfamate]		< 10 nM	
COc1ccc(OC(F)(F)F)cc1-c1cc2nccc(N[C@@H]3C[C@H](COS(N)(=O)=O)[C@@H](O)[C@H]3O)n2n1 [Compound I-102, (s.e)-[(1R,2R,3S,4R)-2,3-dihydroxy-4-({2-[2-methoxy-5-(trifluoromethoxy)-phenyl]pyrazolo[1,5-a]pyrimidin-7-yl}amino)cyclopentyl]methyl sulfamate]		< 10 nM	
NS(=O)(=O)OC[C@H]1C[C@@H](Nc2ccnc3cc(-c4cccc5c4oc4ccccc45)nn23)[C@H](O)[C@@H]1O [Compound I-103, (s.e.)-((1R,2R,3S,4R)-4-(2-(dibenzo[b,d]furan-4-yl)pyrazolo[1,5-a]pyrimidin-7-ylamino)-2,3-dihydroxycyclopentyl)methyl sulfamate]		< 10 nM	

The next lines start with results.

IC50 (recombinant human UAE)	IC50 (recombinant human UAE; human UAE)	Compound	other results
< 10 nM		Cn1cc(-c2cccc(-c3cc4nccc(N[C@@H]5C[C@H](COS(N)(=O)=O)[C@@H](O)[C@H]5O)n4n3)c2)cn1 (racemic) [Compound I-122, (rac)-[(1R,2R,3S,4R)-2,3-dihydroxy-4-({2-[3-(1-methyl-1H-pyrazol-4-yl)phenyl]pyrazolo[1,5-a]pyrimidin-7-yl}amino)cyclopentyl]methyl rel-sulfamate]	
< 10 nM		CC(CO)(CCl)c1cccc(-c2cc3nccc(N[C@@H]4C[C@H](COS(N)(=O)=O)[C@@H](O)[C@H]4O)n3n2)c1 (relative stereo) [Compound I-123, (rac)-{(1R,2R,3S,4R)-4-[(2-{3-[2-chloro-1-(hydroxymethyl)-1-methylethyl]phenyl}pyrazolo[1,5-a]pyrimidin-7-yl)amino]-2,3-dihydroxycyclopentyl}methyl rel-sulfamate]	
	< 10 nM	COc1ccc2ccccc2c1-c1cc2nccc(N[C@@H]3C[C@H](COS(N)(=O)=O)[C@@H](O)[C@H]3O)n2n1 [Compound I-104, (s.e.)-((1R,2R,3S,4R)-2,3-dihydroxy-4-(2-(2-methoxynaphthalen-1-yl)pyrazolo[1,5-a]pyrimidin-7-ylamino)cyclopentyl)methyl sulfamate]	
	< 10 nM	COc1ccc(-c2cc3nccc(N[C@@H]4C[C@H](COS(N)(=O)=O)[C@@H](O)[C@H]4O)n3n2)c2ccccc12 [Compound I-106, (s.e.)-((1R,2R,3S,4R)-2,3-dihydroxy-4-(2-(4-methoxynaphthalen-1-yl)pyrazolo[1,5-a]pyrimidin-7-ylamino)cyclopentyl)methyl sulfamate]	
	< 10 nM	CN(C)c1ccc(-c2cc3nccc(N[C@@H]4C[C@H](COS(N)(=O)=O)[C@@H](O)[C@H]4O)n3n2)c2ccccc12 [Compound I-107, (s.e.)-((1R,2R,3S,4R)-4-(2-(4-(dimethylamino)naphthalen-1-yl)pyrazolo[1,5-a]pyrimidin-7-ylamino)-2,3-dihydroxycyclopentyl)methyl sulfamate]	
	< 10 nM	CC(C)Oc1ccc2ccccc2c1-c1cc2nccc(N[C@@H]3C[C@H](COS(N)(=O)=O)[C@@H](O)[C@H]3O)n2n1 [Compound I-109, (s.e.)-((1R,2R,3S,4R)-2,3-dihydroxy-4-(2-(2-isopropoxynaphthalen-1-yl)pyrazolo[1,5-a]pyrimidin-7-ylamino)cyclopentyl)methyl sulfamate]	
	< 10 nM	NS(=O)(=O)OC[C@H]1C[C@@H](Nc2ccnc3cc(-c4c(OC(F)F)ccc5ccccc45)nn23)[C@H](O)[C@@H]1O [Compound I-110, (s.e.)-((1R,2R,3S,4R)-4-(2-(2-(difluoromethoxy)naphthalen-1-yl)pyrazolo[1,5-a]pyrimidin-7-ylamino)-2,3-dihydroxycyclopentyl)methyl sulfamate]	
	< 10 nM	NS(=O)(=O)OC[C@H]1C[C@@H](Nc2ccnc3cc(-c4cccc5cc(C(F)F)ccc45)nn23)[C@H](O)[C@@H]1O [Compound I-111, (s.e.)-((1R,2R,3S,4R)-4-(2-(6-(difluoromethyl)naphthalen-1-yl)pyrazolo[1,5-a]pyrimidin-7-ylamino)-2,3-dihydroxycyclopentyl)methyl sulfamate]	
	< 10 nM	NS(=O)(=O)OC[C@H]1C[C@@H](Nc2ccnc3cc(-c4ccc(OC(F)F)c5ccccc45)nn23)[C@H](O)[C@@H]1O [Compound I-112, (s.e.)-((1R,2R,3S,4R)-4-(2-(4-(difluoromethoxy)naphthalen-1-yl)pyrazolo[1,5-a]pyrimidin-7-ylamino)-2,3-dihydroxycyclopentyl)methyl sulfamate]	
10 to 100 nM		NS(=O)(=O)OC[C@H]1C[C@@H](Nc2ccnc3cc(-c4c(Cl)cc(Cl)c5ccccc45)nn23)[C@H](O)[C@@H]1O [Compound I-117, (s.e.)-((1R,2R,3S,4R)-4-(2-(2,4-dichloronaphthalen-1-yl)pyrazolo[1,5-a]pyrimidin-7-ylamino)-2,3-dihydroxycyclopentyl)methyl sulfamate]	
	< 10 nM	COc1ccc(SC(F)(F)F)cc1-c1cc2nccc(N[C@@H]3C[C@H](COS(N)(=O)=O)[C@@H](O)[C@H]3O)n2n1 [Compound I-120, (s.e.)-((1R,2R,3S,4R)-2,3-dihydroxy-4-(2-(2-methoxy-5-(trifluoromethylthio)-phenyl)pyrazolo[1,5-a]pyrimidin-7-ylamino)cyclopentyl)methyl sulfamate]	
100 to 1000 nM		NS(=O)(=O)OC[C@H]1C[C@@H](Nc2c(Cl)cnc3c(Cl)c(-c4cccc(SC(F)(F)F)c4)nn23)[C@H](O)[C@@H]1O [Compound I-124, (s.e.)-{(1R,2R,3S,4R)-4-[(3,6-dichloro-2-{3-[(trifluoromethyl)sulfanyl]phenyl}pyrazolo[1,5-a]pyrimidin-7-yl)amino]-2,3-dihydroxycyclopentyl}methyl sulfamate]	
100 to 1000 nM		NS(=O)(=O)OC[C@H]1C[C@@H](Nc2c(Cl)cnc3cc(-c4cccc(SC(F)(F)F)c4)nn23)[C@H](O)[C@@H]1O [Compound I-125, (s.e.)-{(1R,2R,3S,4R)-4-[(6-chloro-2-{3-[(trifluoromethyl)sulfanyl]phenyl}pyrazolo[1,5-a]pyrimidin-7-yl)amino]-2,3-dihydroxycyclopentyl}methyl sulfamate]	
